Patent publication US12709760B2, “KIR 7.1 gene therapy vectors and methods of using the same” (WISCONSIN ALUMNI RESEARCH FOUNDATION, priority 2018, dated 2026)
“Also recorded” adds a separate entry of the source.

Legend:
[1] = system: Kir7.1 channel in LCA16 iPSC-RPE cells; assay: Whole-cell patch clamp of LCA16 patient-derived iPSC-RPE cells; format: cell-based, human
Method: Electrophysiology. Standard whole cell patch clamp on single cells were performed as described^6 Briefly, the tight monolayer of hiPSC-RPE grown on a 6.5 mm transwell was dissociated into a single cell suspension as follows: the medium in which cells were maintained was completely removed and the cells were washed twice with 0NaCMF solution (135 mM NMDG-Cl, 5 mM KCl, 10 mM HEPES, 10 mM Glucose, 2 mM EDTA-KOH and adjusted to pH 7.4 with NMDG free base). The cells were then incubated with 0NaCMF containing papain (2.5 μl/ml), cysteine (0.3 mg/ml), glutathione (0.25 mg/ml) and taurine (0.05 mg/ml) for 45 mins at 37° C. The cells were rinsed with 0NaCMF solution to remove enzymes, resuspended in HEPES-Ringer's (HR) solution [NaCl (135 mM), KCl (5 mM), CaCl2) (1.8 mM), MgCl2 (1 mM), HEPES (10 mM), D-glucose (10 mM), pH 7.4±0.1 with NaOH, prepared in ddH2O], and kept on ice for up to 8 hrs until used for electrophysiological recording.
Single hiPSC-RPE cells with distinct apical processes were chosen for conventional patch clamping. Patch pipettes with a resistance of […] were fabricated from borosilicate capillaries using a pipet puller (P-1000®, Sutter instruments). The glass electrode was then fire polished using a microforge (MF-830®, Narshige). Data acquisition and the holding potential parameters were controlled using the Clampex® software (Axon instruments). Current recorded from the successful patch was amplified using Axopatch 200-B® (Axon Instruments) and filtered at 2 KHz. The signal was digitized using digidata 1400A® (Axon instruments) and analyzed using Clampfit® (Axon Instruments). During patch clamping, HR solution was continuously perfused as an external solution. The patch pipette was filled with solution containing 30 mM KCl, 83 mM K-gluconate, 5.5 mM EGTA-KOH, 0.05 mM CaCl2), 4 mM MgCl2, 10 mM HEPES, pH adjusted to 7.2 with KOH and filtered using the 0.2 μm filter.

[2] = system: Kir7.1 Trp53Ter protein in CHO-K1 cells; assay: Immunoprecipitation / Western blot of GFP-fused Kir7.1 Trp53Ter protein after read-through; format: cell-based; details: Kir7.1-GFP fusion W53X, NB84-treated cells, anti-GFP
[3] = LCA16 hiPSC-RPE subgroup, 100 or 500 μM NB84

Structure (SMILES): C[C@@H](O)C1O[C@H](O[C@@H]2C(N)C[C@@H](NC(=O)[C@@H](O)CCN)[C@@H](O)C2O[C@@H]2O[C@H](CN)[C@H](O)C2O)[C@@H](N)C(O)[C@@H]1O (some centres unmarked) [NB84]
- Current amplitude rescue in a subpopulation of cells [1, 3]: no rescue in current amplitude
- Membrane potential rescue in a subpopulation of cells [1, 3]: rescue of membrane potential to control levels
- Enhancement of current by Rb+ ([1]; LCA16 iPSC-RPE, 500 μM NB84): 10 fold
- Current amplitude upon introduction of Rb+ ([1]; LCA16 iPSC-RPE, 500 μM NB84, high external Rb+, −150 mV, n=8): −1562.7±546.7 pA
- Kir7.1 current amplitude, normal external K+ ([1]; LCA16 iPSC-RPE, 500 μM NB84, inward current at −150 mV, n=8): −94.3±24 pA
- Membrane potential ([1]; LCA16 iPSC-RPE, NB84-treated cells, n=10): −56.3±3.6 mV
- Resting membrane potential versus control level ([1]; LCA16 iPSC-RPE, bar graph comparison FIG. 7D): recovery of LCA16 iPSC-RPE to control level
- Full-length Kir7.1 protein product [2]: a protein band equivalent to the full-length product was detected; also recorded: partial restoration of the full-length protein product
